Results as given in ChEMBL document CHEMBL1201862, “PubChem BioAssay data set” (2004).
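Each compound was tested at five concentrations against cells in 96-well plates for 48 hours. At the GI50, growth is halved.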 Calls of active or inactive are those of the source. No stated cut-off is given here; in the data, active = GI50 up to about 1.1 µM and inactive = higher.

Key:
Experiment in all cases: inhibition of tumour cell growth, NCI panel, 48 h
[1] = test system: M14
[2] = test system: HOP-62
[3] = test system: MDA-MB-435
[4] = test system: SN12C
[5] = test system: SR
[6] = test system: SNB-19
[7] = test system: NCI/ADR-RES
[8] = test system: U-251
[9] = test system: HT-29
[10] = test system: COLO 205
[11] = test system: SK-MEL-28
[12] = test system: LOX IMVI
[13] = test system: RPMI-8226
[14] = test system: SF-268
[15] = test system: OVCAR-4
[16] = test system: HCC 2998
[17] = test system: RXF 393
[18] = test system: CAKI-1
[19] = test system: NCI-H226
[20] = test system: DU-145

Row | SMILES | GI50 [1] | GI50 [2] | GI50 [3] | GI50 [4] | GI50 [5] | GI50 [6] | GI50 [7] | GI50 [8] | GI50 [9] | GI50 [10] | GI50 [11] | GI50 [12] | GI50 [13] | GI50 [14] | GI50 [15] | GI50 [16] | GI50 [17] | GI50 [18] | GI50 [19] | GI50 [20]
1 | CC1=C(C(=O)NNC(=O)C(N)=O)CC(C(=O)NNC(=O)C(N)=O)=C(C)N1 | > 100 µM (inactive) | > 100 µM (inactive) | > 100 µM (inactive) | > 100 µM (inactive) | > 100 µM (inactive) | > 100 µM (inactive) | > 100 µM (inactive) | > 100 µM (inactive) | > 100 µM (inactive) | > 100 µM (inactive) | > 100 µM (inactive) | > 100 µM (inactive) | > 100 µM (inactive) | > 100 µM (inactive) | > 100 µM (inactive) | > 100 µM (inactive) | > 100 µM (inactive) | > 100 µM (inactive) | > 100 µM (inactive) | > 100 µM (inactive)
2 | N#CC1(C#N)C2=C(CCCC2)NC(c2ccc(Br)cc2)C1(C#N)C#N (centres undefined) | 2.63 µM (inactive) | 17.4 µM (inactive) | 3.68 µM (inactive) | 2.33 µM (inactive) | 0.782 µM (active) | 16.5 µM (inactive) | 17.2 µM (inactive) | 13.5 µM (inactive) | 2.55 µM (inactive) | 1.24 µM (inactive) | 12.6 µM (inactive) | 2.11 µM (inactive) | 1.91 µM (inactive) | 7.78 µM (inactive) | 7.76 µM (inactive) | 20.5 µM (inactive) | 2.24 µM (inactive) | 1.75 µM (inactive) | 20.2 µM (inactive) | 12.5 µM (inactive)
3 | Cc1ccc(-n2c(=O)c3nn4c(=O)n(-c5ccc(C)cc5)c(=O)c4nn3c2=O)cc1 | > 100 µM (inactive) | > 100 µM (inactive) | > 100 µM (inactive) | > 100 µM (inactive) | > 100 µM (inactive) | > 100 µM (inactive) | > 100 µM (inactive) | > 100 µM (inactive) | > 100 µM (inactive) | > 100 µM (inactive) | > 100 µM (inactive) | > 100 µM (inactive) | > 100 µM (inactive) | > 100 µM (inactive) | > 100 µM (inactive) | > 100 µM (inactive) | > 100 µM (inactive) | > 100 µM (inactive) | > 100 µM (inactive) | > 100 µM (inactive)
4 | CCC1(c2ccc(N)cc2)CCC(=O)NC1=O (centres undefined) [AMINOGLUTETHIMIDE] | 2290 µM (inactive) | 1050 µM (inactive) | > 2740 µM (inactive) | 3400 µM (inactive) | > 3820 µM (inactive) | 3350 µM (inactive) | 1680 µM (inactive) | 2050 µM (inactive) | 2960 µM (inactive) | 1470 µM (inactive) | 3610 µM (inactive) | 2770 µM (inactive) | 2490 µM (inactive) | 2860 µM (inactive) | 1970 µM (inactive) | 3680 µM (inactive) | 1330 µM (inactive) | 1460 µM (inactive) | 1880 µM (inactive) | 3030 µM (inactive)
5 | CCCCCCCCCCCC(=O)OC[C@H](C[As](=O)(O)O)OC(=O)CCCCCCCCCCC | 2.62 µM (inactive) | 14.8 µM (inactive) | 2.64 µM (inactive) | 3.73 µM (inactive) | 9.68 µM (inactive) | 5.93 µM (inactive) | 14.1 µM (inactive) | 2.36 µM (inactive) | 8.02 µM (inactive) | 19.4 µM (inactive) | 3.94 µM (inactive) | 8.79 µM (inactive) | 6.03 µM (inactive) | 8.13 µM (inactive) | 17.7 µM (inactive) | 8.13 µM (inactive) | 1.92 µM (inactive) | 8.55 µM (inactive) | 14.8 µM (inactive) | 17.3 µM (inactive)
6 | COc1cc(/C=C2/SC(c3ccccc3)N(c3cccc(Cl)c3)C2=O)cc(OC)c1OC (centres undefined) | 19.8 µM (inactive) | 39.8 µM (inactive) | 17.6 µM (inactive) | 17.5 µM (inactive) | 10.8 µM (inactive) | 27.9 µM (inactive) | 17.1 µM (inactive) | 27.6 µM (inactive) | 25.6 µM (inactive) | 56.1 µM (inactive) | 26.2 µM (inactive) | 12.1 µM (inactive) | 16.2 µM (inactive) | 21 µM (inactive) | 41 µM (inactive) | 36.3 µM (inactive) | 15.9 µM (inactive) | 35.9 µM (inactive) | 42.7 µM (inactive) | 39.1 µM (inactive)
7 | O=C1C(Cl)C(c2cc3cc(Br)ccc3nc2Cl)N1c1c(Cl)cccc1Cl (centres undefined) | 22.1 µM (inactive) | > 25 µM (inactive) | 8.67 µM (inactive) | 16.6 µM (inactive) | 4.78 µM (inactive) | > 25 µM (inactive) | 12.3 µM (inactive) | – | > 25 µM (inactive) | > 25 µM (inactive) | > 25 µM (inactive) | 3.66 µM (inactive) | 6.78 µM (inactive) | 11.7 µM (inactive) | 5.46 µM (inactive) | 23.8 µM (inactive) | 9.91 µM (inactive) | 8.65 µM (inactive) | 15.8 µM (inactive) | > 25 µM (inactive)
